According to patent US12077503B2, “Substituted cyclic amides and their use as herbicides” (FMC CORPORATION, priority 2015, dated 2024):

Assays:
Format in all cases: in vivo
Kochia (Kochia scoparia) [1] = assay: Test A preemergence; settings: Bassia scoparia, pre-emergence, 240 h, Preemergence
Method in brief: (§1)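 Compounds were formulated in a non-phytotoxic solvent mixture with surfactant and applied as a preemergence directed soil spray after seeding, or sprayed postemergence over plants 2 to 10 cm tall at the one- to two-leaf stage. Evaluation after about 10 d compared treated with untreated controls, using a scale from 0 (no effect) to 100 (complete control).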

[2] = system: barnyardgrass (Echinochloa crus-galli); assay: Test A preemergence; settings: Echinochloa crus-galli, pre-emergence, 240 h, Preemergence
Method in brief: as §1

[3] = system: giant foxtail (Setaria faberii); assay: Test A preemergence; settings: Setaria faberi, pre-emergence, 240 h, Preemergence
Method in brief: as §1

[4] = system: pigweed (Amaranthus retroflexus); assay: Test A preemergence; settings: Amaranthus retroflexus, pre-emergence, 240 h, Preemergence
[5] = system: ragweed (common ragweed, Ambrosia elatior); assay: Test A preemergence; settings: Ambrosia artemisiifolia, pre-emergence, 240 h, Preemergence
Method in brief: as §1

[6] = system: ryegrass, Italian (Italian ryegrass, Lolium multiflorum); assay: Test A preemergence; settings: Lolium multiflorum, pre-emergence, 240 h, Preemergence
Method in brief: as §1

[7] = system: Galium (catchweed bedstraw, Galium aparine); assay: Test A postemergence; settings: Galium, post-emergence, 240 h, Postemergence, read-out: Plant response rating, Galium
Method in brief: as §1

Kochia (Kochia scoparia) [8] = assay: Test A postemergence; settings: Bassia scoparia, post-emergence, 240 h, Postemergence, read-out: Plant response rating, Kochia
Method in brief: as §1

[9] = system: barnyardgrass (Echinochloa crus-galli); assay: Test A postemergence; settings: Echinochloa crus-galli, post-emergence, 240 h, Postemergence, read-out: Plant response rating, Barnyardgrass
Method in brief: as §1

[10] = system: blackgrass (Alopecurus myosuroides); assay: Test A postemergence; settings: Alopecurus myosuroides, post-emergence, 240 h, Postemergence, read-out: Plant response rating, Blackgrass
Method in brief: as §1

corn (Zea mays) = assay: Test A postemergence; settings: Zea mays, post-emergence, 240 h, Postemergence
Method in brief: as §1

[11] = system: giant foxtail (Setaria faberii); assay: Test A postemergence; settings: Setaria faberi, post-emergence, 240 h, Postemergence, read-out: Plant response rating, Foxtail, Giant
Method in brief: as §1

[12] = system: pigweed (Amaranthus retroflexus); assay: Test A postemergence; settings: Amaranthus retroflexus, post-emergence, 240 h, Postemergence, read-out: Plant response rating, Pigweed
Method in brief: as §1

[13] = system: ragweed (common ragweed, Ambrosia elatior); assay: Test A postemergence; settings: Ambrosia artemisiifolia, post-emergence, 240 h, Postemergence, read-out: Plant response rating, Ragweed
Method in brief: as §1

[14] = system: ryegrass, Italian (Italian ryegrass, Lolium multiflorum); assay: Test A postemergence; settings: Lolium multiflorum, post-emergence, 240 h, Postemergence, read-out: Plant response rating, Ryegrass, Italian
Method in brief: as §1

[15] = system: wheat (Triticum aestivum); assay: Test A postemergence; settings: Triticum aestivum, post-emergence, 240 h, Postemergence, read-out: Plant response rating, Wheat
Method in brief: as §1

[16] = system: barnyardgrass (Echinochloa crus-galli); assay: Test B flooded paddy test; settings: Echinochloa crus-galli, 250 g ai/ha, Flood; 0 to 100 scale where 0 is no effect and 100 is complete control; read-out: Barnyardgrass plant response rating
Method in brief: (§2)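 Flooding to 3 cm over soil accompanied treatment, which consisted of adding compound to the standing water around 2-leaf plants; depth was then maintained. Visual assessment versus controls followed at 13 to 15 d (scale 0–100, 0 meaning no effect).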

[17] = system: ducksalad (Heteranthera limosa); assay: Test B flooded paddy test; settings: Heteranthera limosa, 250 g ai/ha, Flood; 0 to 100 scale where 0 is no effect and 100 is complete control; read-out: Ducksalad plant response rating
Method in brief: as §2

rice (Oryra sativa) = assay: Test B flooded paddy test; settings: Oryza sativa, 250 g ai/ha, Flood; 0 to 100 scale where 0 is no effect and 100 is complete control; read-out: Rice plant response rating
Method in brief: as §2

[18] = system: sedge, umbrella (small-flower umbrella sedge, Cyperus difformis); assay: Test B flooded paddy test; settings: Cyperus difformis, 250 g ai/ha, Flood; 0 to 100 scale where 0 is no effect and 100 is complete control; read-out: Sedge, Umbrella plant response rating
Method in brief: as §2

[19] = 125 g ai/ha, visual injury after approximately 10 d, 0 to 100 scale where 0 is no effect and 100 is complete control
[20] = 31 g ai/ha, visual injury after approx. 10 d, 0 to 100 scale, 0 no effect, 100 complete control

O=C(Nc1cccc(Cl)c1F)[C@H]1C(=O)N(C2CC2)CC[C@@H]1c1ccc(F)cc1 [Compound 1006]
0%: pest or weed control at 31 g/ha (Kochia (Kochia scoparia) [1]; 31 g ai/ha, 0 to 100 scale where 0 is no effect and 100 is complete control, read-out: Kochia plant response rating) | pest or weed control at 125 g/ha (Kochia (Kochia scoparia) [1]; 125 g ai/ha, visual injury rating after approximately 10 d, read-out: Kochia plant response rating (0 to 100 scale, 0 is no effect, 100 is complete control)) | pest or weed control at 125 g/ha ([2]; 125 g ai/ha, visual injury rating after approximately 10 d, read-out: Barnyardgrass plant response rating (0 to 100 scale, 0 is no effect, 100 is complete control)) | pest or weed control at 31 g/ha ([2]; 31 g ai/ha, 0 to 100 scale (0 no effect, 100 complete control), read-out: Plant response rating, Barnyardgrass) | pest or weed control at 125 g/ha ([3]; 125 g ai/ha, visual injury rating after approximately 10 d, read-out: Foxtail, Giant plant response rating (0 to 100 scale, 0 is no effect, 100 is complete control)) | pest or weed control at 31 g/ha ([3]; 31 g ai/ha, 0 to 100 scale (0 no effect, 100 complete control), read-out: Plant response rating, Foxtail, Giant) | pest or weed control at 31 g/ha ([4]; 31 g ai/ha, 0 to 100 scale where 0 is no effect and 100 is complete control, read-out: Pigweed plant response rating) | pest or weed control at 125 g/ha ([4]; 125 g ai/ha, visual injury rating after approximately 10 d, read-out: Pigweed plant response rating (0 to 100 scale, 0 is no effect, 100 is complete control)) | pest or weed control at 31 g/ha ([5]; 31 g ai/ha, 0 to 100 scale where 0 is no effect and 100 is complete control, read-out: Ragweed plant response rating) | pest or weed control at 125 g/ha ([5]; 125 g ai/ha, visual injury rating after approximately 10 d, read-out: Ragweed plant response rating (0 to 100 scale, 0 is no effect, 100 is complete control)) | pest or weed control at 31 g/ha ([6]; 31 g ai/ha, 0 to 100 scale where 0 is no effect and 100 is complete control, read-out: Ryegrass, Italian plant response rating) | pest or weed control at 125 g/ha ([6]; 125 g ai/ha, visual injury rating after approximately 10 d, read-out: Ryegrass, Italian plant response rating (0 to 100 scale, 0 is no effect, 100 is complete control)) | pest or weed control at 125 g/ha [7, 19] | pest or weed control at 31 g/ha [7, 20] | pest or weed control at 125 g/ha (Kochia (Kochia scoparia) [8]; [19]) | pest or weed control at 31 g/ha (Kochia (Kochia scoparia) [8]; [20]) | pest or weed control at 125 g/ha [9, 19] | pest or weed control at 31 g/ha [9, 20] | pest or weed control at 125 g/ha [10, 19] | pest or weed control at 31 g/ha [10, 20] | Corn plant response rating (crop injury, 0 = no effect, 100 = complete kill) at 31 g/ha (corn (Zea mays); [20]) | pest or weed control at 125 g/ha [11, 19] | pest or weed control at 31 g/ha [11, 20] | pest or weed control at 125 g/ha [12, 19] | pest or weed control at 31 g/ha [12, 20] | pest or weed control at 125 g/ha [14, 19] | pest or weed control at 31 g/ha [14, 20] | plant injury at 125 g/ha [15, 19] | plant injury at 31 g/ha [15, 20] | pest or weed control at 250 g/ha [16] | pest or weed control at 250 g/ha [17] | pest or weed control at 250 g/ha (rice (Oryra sativa)) | pest or weed control at 250 g/ha [18]
10%: Corn plant response rating (crop injury, 0 = no effect, 100 = complete kill) at 125 g/ha (corn (Zea mays); [19]) | pest or weed control at 125 g/ha [13, 19] | pest or weed control at 31 g/ha [13, 20]
